Values quoted from earlier work, collected in patent publication US20220130517A1, “PS[…] VARIOUS MENTAL HEALTH DISORDERS” (Ketamine SLC, priority 2020, published 2022).

Test system: mental health disorder
Details: IV drip over 40 minutes, 0.5 mg/kg per session, six sessions over twelve days; some patients

CNC1(c2ccccc2Cl)CCCCC1=O (stereo not shown) [ketamine]
relief from the symptoms of mental health disorder: some patients experience relief from the symptoms of their mental health disorder for a period of time including weeks and/or months
